In ChEMBL document CHEMBL4811265, “Structural understanding of 5-(4-hydroxy-phenyl)-N-(2-(5-methoxy-1H-indol-3-yl)-ethyl)-3-oxopentanamide as a neuroprotectant for Alzheimer's disease” (Bioorg Med Chem Lett, 2021) one finds EC50 data, which are given here for 25 compounds.

A short description of this assay: Neuroprotective activity in human MC65 cells cultured in TC-deficient medium assessed as inhibition of TC-deficiency induced cell death by measuring increase in cell viability measured after 72 hrs by MTT assay. The note with it: MC65, 72 h. The assay is classed as functional, cell-based. (Formazan colour is commonly taken as a measure of viable cells.)

Molecules are shown by their SMILES.

A word on the EC50: it is the concentration giving half of the maximal effect. Regarding `COc1ccc2[nH]cc(CCNC(=O)CC(=O)CCc3ccc(O)cc3)c2c1`, the EC50 amounted to 32.6 nM.
With `O=C(/C=C/c1ccc(O)cc1)CC(=O)NCCc1c[nH]c2ccc(O)cc12`, the EC50 came to 178 nM.
For `COc1ccc2[nH]cc(CCNC(=O)CC(=O)CCc3ccc(F)cc3)c2c1`, the EC50 was determined as 33 nM.
In the case of `C#CCOc1ccc2[nH]cc(CCNC(=O)CC(=O)CCc3ccc(O)cc3)c2c1`, the EC50 was 32 nM.
As to `COc1ccc2[nH]cc(CCNC(=O)CC(=O)/C=C/c3ccc4c(c3)OCO4)c2c1`, the EC50 was over 3000 nM.
In the case of `COc1ccc2[nH]cc(CCNC(=O)CC(=O)/C=C/c3ccncc3)c2c1`, the EC50 is over 3000 nM.
With `C#CCOc1ccc2[nH]cc(CCNC(=O)CC3(CCc4ccc(O)cc4)N=N3)c2c1`, the concentration for a half-maximal effect (EC50) amounted to 26.1 nM.
Next, `COc1ccc2[nH]cc(CCNC(=O)CC3(CCc4ccc(O)cc4)N=N3)c2c1`: 56.2 nM; `COc1ccc(CCC(=O)CC(=O)NCCc2c[nH]c3ccc(OC)cc23)cc1`: 490 nM.
Regarding `[N-]=[N+]=Nc1ccc2[nH]cc(CCNC(=O)CC(=O)CCc3ccc(O)cc3)c2c1`, the EC50 was determined as 16.5 nM.
Regarding `COc1ccc2[nH]cc(CCNC(=O)CC(=O)/C=C/c3ccco3)c2c1`, the EC50 amounted to 228 nM.
With `Nc1ccc2[nH]cc(CCNC(=O)CC(=O)CCc3ccc(O)cc3)c2c1`, the EC50 is over 3000 nM.
As for `COc1ccc2[nH]cc(CCNC(=O)CC(=O)/C=C/c3ccoc3)c2c1`, the EC50 was 336 nM.
Regarding `COc1ccc2[nH]cc(CCNC(=O)CC(=O)/C=C/c3ccc(N(C)C)cc3)c2c1`, the EC50 was determined as 976 nM.
Regarding `O=C(CCc1ccc(O)cc1)CC(=O)NCCc1c[nH]c2ccc([N+](=O)[O-])cc12`, the EC50 is 500 nM.
Consider `O=C(CCc1ccc(O)cc1)CC(=O)NCCc1c[nH]c2ccc(O)cc12`, for which the EC50 was found to be 364 nM.
With `COc1ccc2[nH]cc(CCNC(=O)CC(=O)/C=C/c3cccnc3)c2c1`, the EC50 was over 3000 nM.
As for `COc1ccc2[nH]cc(CCNC(=O)CC(=O)/C=C/c3ccc(O)cc3)c2c1`, the 50% effective concentration (EC50) was 29 nM.
In the case of `COc1ccc(CCC2(CC(=O)NCCc3c[nH]c4ccc(OC)cc34)N=N2)cc1`, the EC50 is over 3000 nM.
As for `COc1ccc2[nH]cc(CCNC(=O)CC(=O)/C=C/c3ccc(F)cc3)c2c1`, the EC50 came out at 32.8 nM.
With `COc1ccc2[nH]cc(CCNC(=O)C3CCC/C(=C\c4ccc(O)cc4)C3=O)c2c1` (racemic), the EC50 was 224 nM.
For the compound `COc1ccc2[nH]cc(CCNC(=O)C3CC/C(=C\c4ccc(O)cc4)C3=O)c2c1` (racemic), the EC50 worked out at 127 nM.
Regarding `O=C(CC(O)CCc1ccc(O)cc1)NCCc1c[nH]c2ccc(O)cc12` (racemic), the EC50 stood at 9.2 nM.
For `COc1ccc2[nH]cc(CCNC(=O)C3CCC(Cc4ccc(O)cc4)C3=O)c2c1` (racemic), the concentration giving a half-maximal response (EC50) is over 3000 nM.
Turning to `COc1ccc2[nH]cc(CCNC(=O)C3CCCC(Cc4ccc(O)cc4)C3=O)c2c1` (racemic), the EC50 is over 3000 nM.
